Legend:
[1] = test system: dihydropteridine reductase; test: Tested in isolated enzyme assay for its cofactor actidihydropteridine reductaseity against dihydropteridine reductase expressed as relatidihydropteridine reductasee dihydropteridine reductaseelocity
[2] = test system: dihydropteridine reductase; test: Tested in isolated enzyme assay for its cofactor activity against dihydropteridine reductase expressed as relative velocity

CCCCOCC1CNc2nc(N)nc(O)c2N1.Cl.Cl (centres undefined)
Relative velocity [1]: 283%

CC(C)OCC1CNc2nc(N)nc(O)c2N1.Cl.Cl (centres undefined)
Relative velocity [2]: 277%

CC(O)C(O)C1CNc2nc(N)nc(O)c2N1.Cl.Cl (centres undefined)
Relative velocity [2]: 100%

CCCOCC1CNc2nc(N)nc(O)c2N1.Cl.Cl (centres undefined)
Relative velocity [2]: 212%

CCOCC1CNc2nc(N)nc(O)c2N1.Cl.Cl (centres undefined)
Relative velocity [2]: 419%

CC1CNc2nc(N)[nH]c(=O)c2N1.Cl.Cl (centres undefined)
Relative velocity [2]: 216%

CC(C)(C)OCC1CNc2nc(N)nc(O)c2N1.Cl.Cl (centres undefined)
Relative velocity [2]: 222%

CC1(C)CNc2nc(N)nc(O)c2N1
Relative velocity [2]: 239%

COCC1CNc2nc(N)nc(O)c2N1.Cl.Cl (centres undefined)
Relative velocity [2]: 421%

Reference: ChEMBL document CHEMBL1123591, “Synthetic analogues of tetrahydrobiopterin with cofactor activity for aromatic amino acid hydroxylases” (1987)
